# Results reported in patent US20240058363A1 (Emyria, priority 2020, published 2024).
# System: symptoms of anxiety
# Test: DASS-21 anxiety score in patients treated with CBD only (clinical data registry)
# Type: in vivo, human
# Details: for DASS-21 Anxiety Score, Post 1-month follow-up Mean (Std. dev): mean days of treatment 47 (+/−23)
# Text: Detailed demographic information and validated standardised questionnaires were collected as part of routine care. Written informed consent to treatment was obtained from all patients, as well as additional consent to participate in Emyria's clinical data registry, data from participating patients were anonymised, aggregated, and analysed to establish clinical efficacy.
# Clinically validated tools were used to monitor patients for management of symptoms, quality of life, physical/emotional functioning, and concomitant medication usage. […] After they commenced on medicinal cannabis treatment they were initially treated with low doses and monitored for safety and efficacy of treatment before dose escalation is considered.
# A potentially eligible individual who met any of the following criteria will be excluded from participation if the following criteria is met: • 1. Clinically recorded cannabis drug addiction, or cannabis use disorder including individuals with scores 8 or more on the Cannabis Use Disorder Identification Test (CUDIT). • 2. Untreated cardiovascular disease, arrhythmias (other than well controlled atrial fibrillation), or severe heart failure. • 3. History of suicide attempts or suicidal ideation. • 4. History of psychotic episode, schizophrenia or other psychotic disorders.
# Patients were assessed monthly by the clinical team (doctor and nurse) and a visit schedule protocol was followed for each patient. A full medical history was conducted at the initial visit, including a detailed history of the clinical indication (including duration symptoms), comorbidities mental and cardiac health conditions, previous procedures, medications and therapies tried. Patients were reviewed as per the Schedule of Assessments (FIG. 2).
# The doctors treating patients prescribed orally-based medicinal cannabis standardised products as per approval under the Therapeutic Goods Administration (TGA) through the Special Access Scheme (SAS) Category B and Authorised Prescriber (AP) scheme. The prescribing doctor will decide which product type including THC/CBD ratio and CBD only, based on TGA guidance documents (ie for pain THC/CBD type is generally prescribed) [see https://www.tga.gov.au/medicinal-cannabis-guidance-documents], but also will factor in patient's circumstances such as driving (then CBD only prescribed).
# Doctors reviewed patients after the 14 day (2 week), see the Schedule of Assessments (FIG. 2). Following the 2-week dosing review where a doctor may increase/decrease the dosage or change product type, patients were then seen regularly (generally monthly) as per the Schedule of Assessments (FIG. 2). Patients taking CBD only products were prescribed either oil or capsules.
smiles,measurement,setting,value
"C=C(C)C1CCC(C)=CC1c1c(O)cc(CCCCC)cc1O (centres unmarked) [cannabidiol, 2-[3-methyl-6-(1-methylethenyl)-2-cyclohexen-1-yl]-5-pentyl-1,3-benzenediol]","DASS-21 Anxiety Score, Post 1-month follow-up Mean (Std. dev)","All (n = 146), initial mean 13.7 (8.7), p 0.000",9.1 (6.8)
same,"DASS-21 Anxiety Score, Post 1-month follow-up Mean (Std. dev)","Mod to extreme (n = 100), initial mean 17.7 (7.5), p 0.000",11.0 (7.1)
same,Decrease in anxiety score,average treatment window of slightly under 13 days,−6.0
same,"DASS-21 Anxiety Score, Post 1-month follow-up Mean (Std. dev)","baseline category Mild 8-9 (n = 13), initial mean 8.0 (0.0), p 0.291",7.1 (3.0)
same,"DASS-21 Anxiety Score, Post 1-month follow-up Mean (Std. dev)","baseline category Moderate 10-14 (n = 50), initial mean 12.1 (1.7), p 0.000",8.8 (5.1)
same,"DASS-21 Anxiety Score, Post 1-month follow-up Mean (Std. dev)","baseline category Normal 0-7 (n = 33), initial mean 3.9 (1.7), p 0.667",4.2 (3.7)
same,"DASS-21 Anxiety Score, Post 1-month follow-up Mean (Std. dev)","baseline category Severe 15-19 (n = 16), initial mean 17.0 (1.0), p 0.009",10.9 (7.9)
same,Change in anxiety score from initial visit to first follow-up versus dosage (FIG. 6),dosage amounts between 50-200 mg per day,"correlated with a higher value of change indicating less symptoms of anxiety, stress and/or depression"
same,Fall in anxiety score,mean treatment horizon of 22 days,−5.7
same,Decline in anxiety score,mean treatment period of 7 days,−10.5
same,Mean DASS-21 anxiety score over the first six months (FIG. 14),patients with subthreshold and clinically significant scores at baseline,significant reduction over the 6-month period
